In patent US20130245110A1, “USE FOR CANNABINOIDS” (priority 2008, published 2013):
Values joined by “and” are separate entries in the source; they are usually repeats but may differ in a detail not shown here. Equal values may be shown once.

Legend:
[1] = system: dietary induced obese (DIO) mouse model; assay: Thermic response to food (energy expenditure after Complan meal), chronic dosing study; format: in vivo; set-up: Thermic response to food: unit not given here; settings: for Thermic response to food: listed as pure THCV
Description: Once the acute studies were complete the mice were grouped in two groups of five mice for the chronic dosing study. Dosing was daily by oral gavage at 09:00-10:00.
Energy expenditure consists of basal metabolic rate, exercise-induced energy expenditure, and non-exercise thermogenesis. The latter is the most likely area to be affected by anti-obesity agents. Non-exercise thermogenesis includes the thermic response to food, which in rodents can be measured by examining energy expenditure in response to a meal. This was measured after an oral dose of complan (see methods).

C57B1/Ks db/db mouse = assay: Glycaemic control (blood glucose, oral glucose tolerance, 24 h glucose profile); format: in vivo; settings: db/db mice
Description: Inflammation is also a feature of type II diabetic animals and man. […] However, as a result of the C57B1/Ks genetic background rather than the C57B1/6, the mice show loss of pancreatic function from around 6/7 weeks of age and by 10 weeks show frank diabetes.
• Daily: Food and water intake • Twice weekly: Body weight and glucose • Day 1: Weigh mice, dose compounds, provide measured amount of food, provide measured amount of water • Days 2, 5 and 8: Fed blood glucose concentration • Day 9: Oral glucose tolerance • Days 12 and 16: Fed blood glucose concentration • Day 19: 24 hr glycaemic assay • Days 22, 26 and 29: Fed blood glucose concentration • Day 33: 24 hr glycaemic assay • Day 38: Fed blood glucose concentration • Day 39: Body composition by Dexascan in anaesthetised mice • Day 41: Termination. Take blood samples for glucose, free fatty acids, triglycerides, cholesterol, insulin and HbA

| Compound | Thermic response to food ([1]; DIO mice, days 15-17, 0.3 mg·kg−1 p.o., Hour 0.22) | Thermic response to food ([1]; DIO mice, days 15-17, 0.3 mg·kg−1 p.o., Hour 0.44) | Thermic response to food ([1]; DIO mice, days 15-17, 0.3 mg·kg−1 p.o., Hour 0.67) | Thermic response to food ([1]; DIO mice, days 15-17, 0.3 mg·kg−1 p.o., Hour 0.89) | Thermic response to food ([1]; DIO mice, days 15-17, 0.3 mg·kg−1 p.o., Hour 1.11) | Thermic response to food ([1]; DIO mice, days 15-17, 0.3 mg·kg−1 p.o., Hour 1.33) | Thermic response to food ([1]; DIO mice, days 15-17, 0.3 mg·kg−1 p.o., Hour 1.56) | Thermic response to food ([1]; DIO mice, days 15-17, 0.3 mg·kg−1 p.o., Hour 1.78) | Thermic response to food ([1]; DIO mice, days 15-17, 0.3 mg·kg−1 p.o., Hour 2.00) | Thermic response to food ([1]; DIO mice, days 15-17, 0.3 mg·kg−1 p.o., Hour 2.22) | Thermic response to food ([1]; DIO mice, days 15-17, 0.3 mg·kg−1 p.o., Hour 2.44) | Thermic response to food ([1]; DIO mice, days 15-17, 0.3 mg·kg−1 p.o., Hour 2.67) | Thermic response to food ([1]; DIO mice, days 15-17, 0.3 mg·kg−1 p.o., Hour 2.89) | Thermic response to food ([1]; DIO mice, days 15-17, 0.3 mg·kg−1 p.o., Hour 3.11) | Thermic response to food ([1]; DIO mice, days 15-17, 0.3 mg·kg−1 p.o., Hour 3.33) | Thermic response to food ([1]; DIO mice, days 15-17, 0.3 mg·kg−1 p.o., Hour 4.00) | Thermic response to food, effect in words ([1]; DIO mice, days 15-17, chronic-study doses (rimonabant 10, pure THCV 0.3 mg·kg−1 p.o.)) | Thermic response to food ([1]; mouse, in vivo, po) | Glycaemic control versus control (C57B1/Ks db/db mouse) |
| --- | --- | --- | --- | --- | --- | --- | --- | --- | --- | --- | --- | --- | --- | --- | --- | --- | --- | --- | --- |
| CCCc1cc(O)c2c(c1)OC(C)(C)[C@@H]1CCC(C)=C[C@@H]21 [THCV, tetrahydrocannabivarin] | 0.67 and 0.91 and 1.26 | 1.78 and 1.70 and 1.98 | 2.30 and 2.06 and 2.49 | 2.51 and 2.42 | 2.51 and 2.74 and 2.64 | 2.50 and 2.82 and 2.67 | 2.53 and 2.81 and 3.13 | 2.54 and 2.76 and 3.31 | 2.45 and 2.62 and 3.18 | 2.61 and 2.74 and 3.44 | 2.71 and 2.74 and 3.18 | 2.66 and 2.83 and 3.10 | 2.71 and 3.01 and 3.09 | 2.68 and 3.16 and 3.02 | 2.68 and 3.34 and 3.04 | 2.70 and 3.49 and 3.13 | have an affect over 2 h | 2.61 and 3.49 and 3.02 and 2.43 and 3.48 and 3.03 |  |
| C=C(C)[C@@H]1CCC(C)=C[C@H]1c1c(O)cc(CCCCC)cc1O [CBD, cannabidiol] |  |  |  |  |  |  |  |  |  |  |  |  |  |  |  |  |  |  | did not show significant differences in glycaemic control |
